Measurements published in PubChem BioAssay (NCI).
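A five-concentration, 48-hour dose response in 96-well plates underlies each endpoint, interpolated linearly between surrounding concentrations. The concentration for full growth arrest is given as TGI.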

Columns and labels:
Test in all cases: NCI-60 cell line screen, 48 h
HCC-2998 colon = tested on: HCC-2998 colon
HOP-62 NSCLC = tested on: HOP-62 NSCLC
LXFL 529 NSCLC = tested on: LXFL 529 NSCLC
M19-MEL melanoma = tested on: M19-MEL melanoma
MOLT-4 leukemia = tested on: MOLT-4 leukemia
RXF 393 renal = tested on: RXF 393 renal
SK-MEL-5 melanoma = tested on: SK-MEL-5 melanoma
SNB-75 CNS = tested on: SNB-75 CNS
BT-549 breast = tested on: BT-549 breast
CAKI-1 renal = tested on: CAKI-1 renal
HS 578T breast = tested on: HS 578T breast

SMILES | TGI (HCC-2998 colon) [µM] | TGI (HOP-62 NSCLC) [µM] | TGI (LXFL 529 NSCLC) [µM] | TGI (M19-MEL melanoma) [µM] | TGI (MOLT-4 leukemia) [µM] | TGI (RXF 393 renal) [µM] | TGI (SK-MEL-5 melanoma) [µM] | TGI (SNB-75 CNS) [µM] | TGI (BT-549 breast) [µM] | TGI (CAKI-1 renal) [µM] | TGI (HS 578T breast) [µM]
Cc1cc(C)c(N)c(C)c1N | > 100 | > 100 | > 100 | > 100 | > 100 | > 100 | > 100 |  |  |  | 
O=C(NN1C(=O)C(Cl)C1c1ccc([N+](=O)[O-])cc1)c1ccccc1O (stereo not given) |  | > 100 | > 100 | > 100 | > 100 | > 100 | > 100 | > 100 |  |  | 
Nc1nc(SCc2ccccc2[N+](=O)[O-])c2[nH]cnc2n1 | 97.4 | > 100 | > 100 | > 100 | > 100 | > 94 | 49.1 | > 70.4 | > 100 | > 100 | 24.7
CCOC(=O)C1CCn2c(nc3c(=O)n(C)c(=O)n(C)c32)S1 (stereo not given) |  | > 100 | > 100 |  | > 100 | > 100 | > 100 | > 100 |  | > 100 | 
Nc1ccc(S(=O)(=O)c2ccc(N=[N+]([O-])c3ccc(S(=O)(=O)c4ccc(N)cc4)cc3)cc2)cc1 | > 100 | > 54.3 |  |  | > 100 | 57.8 | > 100 | 37.1 | > 65.6 | > 100 | > 74.7
COC(=O)C1(Cc2ccc3c(c2)CCC3)Cc2cc3c(cc2C1=O)CCC3 (stereo not given) | 38.1 | > 46.4 |  |  | 38.7 | > 46.4 | 32.3 | > 46.4 | 39.2 | > 31.6 | > 46.4
O=C1O[C@H](COC(=O)c2ccccc2)[C@@H](OC(=O)c2ccccc2)C=C1OC(=O)c1ccccc1 | > 100 | 39.4 |  |  | 56 | 31.4 | 36.2 | > 100 | 43.7 | 51.2 | > 100
CN(C)Cc1cc(C(=O)/C=C/c2c(F)cccc2Cl)cc(CN(C)C)c1O | 27 | 26.7 |  |  | 66.1 | 12.6 | 29.2 | 21.8 | 21.8 | 25.3 | 50.2
CCCCCCCCC[C@@H]1C[C@@H]2CCC3C(C(=O)OCCCCNC(=O)OCc4ccccc4)=C(C)NC(=N1)N32 (stereo not given in full) | 11.1 | 10.3 |  |  | 6.41 | 7.34 | 2.93 | 16.9 | 12.6 | 14.9 | 5.48
CC1=NN(C(=O)c2ccccc2)C(=O)C1N=Nc1ccccc1C(=O)O (stereo not given) | > 70.6 | > 100 |  | > 100 | > 100 | > 100 | > 100 | > 20.7 |  | > 100 | 
COc1cc(C2c3cc4c(cc3OC(N3CCOCC3)C2C)OCO4)cc(OC)c1OC (stereo not given) | 4.35 | 52.8 |  |  | > 38.2 | 1.22 | 6.78 | > 48.2 | 65.8 | 23.3 | 0.722
COc1cc(C2c3cc4c(cc3[C@@H](Nc3ccc(N5CCOCC5)cc3)C3COC(=O)[C@H]23)OCO4)cc(OC)c1O (stereo not given in full) | 4.1 | 0.829 |  | 22.8 | 0.19 | 5.86 | 2.45 | 78.2 |  | 2.63 | 
CN1CCN(CCCCNc2cc3c4ccccc4c(NCCCCN4CCN(C)CC4)cc3c3ccccc23)CC1 | 3.29 | 7.72 |  |  | 1.88 | 3.13 | 2.85 | 7.8 | 14.9 | 25.6 | 5.65
Cn1nc2ccc3nccc(NCCNCCCl)c3c2n1 | > 100 | > 100 | > 100 | > 100 | > 100 | > 100 |  | > 100 |  |  | 
CCOC(=O)c1[nH]n(-c2ccccc2)c(=O)c1C=NC(=S)C(N)=S | > 100 | > 100 |  |  | > 100 | 65.1 | 40.3 | 91.4 | > 100 | > 100 | > 100
OC(C1CCCC1=N/N=C1/CCCC1C(O)(C(F)(F)Cl)C(F)(F)Cl)(C(F)(F)Cl)C(F)(F)Cl (stereo not given) | > 10 | > 10 |  |  | > 10 | > 10 | > 10 | > 10 | > 10 | > 10 | > 10

SMILES | TGI (HCC-2998 colon) [µM] | TGI (HOP-62 NSCLC) [µM] | TGI (LXFL 529 NSCLC) [µM] | TGI (M19-MEL melanoma) [µM] | TGI (MOLT-4 leukemia) [µM] | TGI (RXF 393 renal) [µM] | TGI (SK-MEL-5 melanoma) [µM] | TGI (SNB-75 CNS) [µM] | TGI (BT-549 breast) [µM] | TGI (CAKI-1 renal) [µM] | TGI (HS 578T breast) [µM]
CC(=O)O[C@H]1CC[C@H]2[C@@H]3CC[C@H]4Nc5c(cnn5S(C)(=O)=O)C[C@]4(C)[C@H]3CC[C@]12C | > 100 | 77.4 |  |  | > 100 | > 100 | > 100 | > 100 | 80.9 | > 100 | > 100
N/C(=N\N=C/c1cc(Cl)cc(Cl)c1O)NO | 10.1 | 12.5 |  | 27 | > 23 | 26.8 | 12.5 | 9.58 |  | 10.1 | 
COc1ccc2c(c1)Cc1c-2[nH]c2cc3c(cc2c1=O)OCO3 | 51 | 45.1 | > 100 | 34.3 | 41.9 | 19.5 | 19.4 |  |  | > 100 | 
CC(C)=CCC[C@@H](C)C1=C(O)C(Nc2ccccc2F)=C(C)C(=O)C1=O | > 100 | > 55.7 |  |  | > 100 | > 57.1 | 42.3 | > 78.8 | > 79.7 | 48.2 | 54.8
COC(=O)C(Cc1ccccc1)NC(=O)C(CCCN=C(N)N)NC(=O)OCc1ccccc1 (stereo not given) | > 100 | > 100 |  |  | > 100 | > 100 | > 100 | > 100 | > 100 | > 100 | > 100
CC(=O)C1C(=O)C(=O)N(c2ccc([N+](=O)[O-])cc2Cl)C1=O (stereo not given) | > 100 | > 100 |  |  | > 100 | > 100 | > 100 | > 100 | > 100 | > 100 | > 100
CC[S+](C)c1ccc(-c2c3nc(c(-c4ccc([S+](C)CC)cc4)c4ccc([nH]4)c(-c4ccc([S+](C)CC)cc4)c4nc(c(-c5ccc([S+](C)CC)cc5)c5ccc2[nH]5)C=C4)C=C3)cc1 (stereo not given) |  | 93.5 | > 100 | > 100 | 67.1 | 63.3 | > 100 | > 100 |  | > 100 | 
CN(C)C(=O)CO/N=C1/C(c2c(O)[nH]c3ccccc23)=Nc2ccccc21 | > 100 | > 100 |  |  | > 100 | 58.6 | > 100 | 89.8 | > 100 | > 100 | > 100
CCOC(=O)c1ccc2c(=O)n3c(C(=O)OCC)ccc3c(=O)n12 | > 100 | > 100 |  |  | > 100 | > 100 | > 100 | > 100 | > 100 | > 100 | > 100
Cc1cc(O)c(/C=N/C(=O)NN)c(=O)o1 | > 100 | > 100 |  |  | > 100 | > 100 | > 100 | > 100 | > 100 | > 100 | > 100
CCOC(=O)CC(=Nc1cc(C)on1)N(CC)CC |  | > 100 | > 100 | > 100 | > 100 |  | > 100 | > 100 |  | > 100 | 
CC1=NN(c2cccc(Cl)c2)C2(C1)SCC(=O)N2c1nc2ccccc2s1 (stereo not given) | 38.5 | 58.3 |  |  | 38.9 | 44.9 | 39.4 | 43.5 | > 100 | > 100 | > 100
CCOc1ccc(-n2c(=O)n3c(Nc4ccc(Cl)cc4)nc4c(c(=O)n(C)c(=O)n4C)n3c2=O)cc1 | 34.4 | > 100 |  |  | 69.9 | 43.2 | 36 | 69.1 | 64.3 | > 100 | > 100
Cn1c2cc(Cl)ccc2c2ccc3c(c21)C(=O)C=CC3=O | > 100 | > 100 |  |  | 10.3 | 40 | > 100 | > 100 | > 63.8 | 22.1 | > 100
CCN(CC)CCNC(=O)c1cc2cc(NC(=O)c3cc4cc(NC(=O)c5cc6cc([N+](=O)[O-])ccc6[nH]5)ccc4[nH]3)ccc2[nH]1 | > 100 | > 100 |  |  | > 100 | > 100 | > 100 | > 100 | > 100 | > 100 | > 100
CS(=O)(=O)OC1CCN(C2(c3cccc(O)c3)CCCCC2)CC1 | 39.7 | > 100 |  |  | 94.1 | > 100 | > 100 | > 100 | > 100 | > 100 | > 100
